From patent publication US7414066B2, “Amide compounds and medications containing the same technical field” (Kowa Company Ltd., priority 1999, dated 2008) come the findings set out here.

Data set [1] deals with J774 cells. The data set can be described thus: ACAT inhibitory activity (anti-foamation activity) in J774 cells. Type of data set: cell-based. The note with it: for IC50: Mus musculus, J774 cells, 25-OH cholesterol 10 μg/ml, 18 hours, read-out: Enzyme (J774) IC50; for IC50 (HepG2)/IC50 (J774): ratio HepG2 / J774. As for the experimental part:
(§1) J774 cells or HepG2 cells were spread on a 24-well plate. The cells were incubated in a 5% CO2 incubator at 37° C. for 24 hours using DMEM in the case of the J774 cells and a MEM culture solution in the case of the HepG2 cells (both containing 10% fetal calf serum).
(§2) The medium was removed, and the residue was washed twice with PBS, then extracted with 1.5 ml of a hexane:isopropanol (3:2) mixture, and concentrated to dryness. The extract was dissolved in 0.2 ml of isopropanol containing 10% Triton X-100. Total cholesterol (TC) and free cholesterol (FC) were measured using Cholesterol E Test Wako (supplied by Wako Pure Chemical Industries, Ltd.) and Free Cholesterol E Test Wako (supplied by Wako Pure Chemical Industries, Ltd.).
(§3) The cell extract residue was solubilized in 0.25 ml of 2N NaOH at 37° C. for 30 minutes, and the protein amount was measured using BCA Protein Assay Reagent (Pierce).
(§4) The amount of cholesterol based on the protein was calculated from the difference between TC and FC, and an IC50 value was obtained from the calculation in contrast with the control.

Data set [2] has as its system HepG2 cells. The data set can be described thus: ACAT inhibitory activity (anti-foamation activity) in HepG2 cells. Type of data set: cell-based. The note with it: Homo sapiens, 25-OH cholesterol 10 μg/ml, 18 hours, read-out: Enzyme (HepG2) IC50. The method, then: as §1, §2, §3, §4
Data set [3] deals with T1, ACAT (enzyme solution derived from the small intestine of a rabbit).
T1 construct: An enzyme solution derived from the small intestine was prepared from the small intestine of a rabbit that had eaten a normal food
The data set can be described thus: ACAT inhibitory activity, enzyme solution from rabbit small intestine. The note with it: B‡: the small intestine. Type of data set: biochemical. The method, then: (§5) A microsome was prepared from the breast aorta of a rabbit which had been fed with 1% cholesterol food for 8 weeks in a usual manner, and suspended in a 0.15 M phosphate buffer solution (pH 7.4) to form an enzyme solution. An enzyme solution derived from the small intestine was prepared from the small intestine of a rabbit that had eaten a normal food.
(§6) To this solution were added 10 μl of the enzyme solution, and the mixture was reacted at 37° C. for 5 minutes (for 3 minutes in the case of the small intestine). Then, 3 ml of a chloroform/methanol (2/1) mixture and 0.5 ml of 0.04 N hydrochloric acid were added thereto to stop the reaction. The lipid was then extracted. The solvent layer was concentrated to dryness, and dissolved in hexane. The solution was spotted on a TLC plate(supplied by Merck Co.). The elution was conducted with a hexane:ether:acetic acid (75:25:1) mixture.
(§7) The radioactivity of the resulting cholesterol ester fraction was measured using BAS 2000 (supplied by Fuji Photo Film Co., Ltd.). An IC50 value was obtained from the calculation in contrast with a control containing only DMSO.

For data set [4], the target named is ACAT (microsome from the breast aorta of a rabbit) (Oryctolagus cuniculus, UniProt G1SUQ0). In words: ACAT inhibitory activity, microsome from rabbit breast aorta (blood vessel wall enzyme). Type of data set: biochemical. The note with it: microsome from breast aorta of cholesterol-fed rabbit. The method, then:
as §5, §6, §7

Sequence of ACAT (microsome from the breast aorta of a rabbit) (G1SUQ0 entry or part of it): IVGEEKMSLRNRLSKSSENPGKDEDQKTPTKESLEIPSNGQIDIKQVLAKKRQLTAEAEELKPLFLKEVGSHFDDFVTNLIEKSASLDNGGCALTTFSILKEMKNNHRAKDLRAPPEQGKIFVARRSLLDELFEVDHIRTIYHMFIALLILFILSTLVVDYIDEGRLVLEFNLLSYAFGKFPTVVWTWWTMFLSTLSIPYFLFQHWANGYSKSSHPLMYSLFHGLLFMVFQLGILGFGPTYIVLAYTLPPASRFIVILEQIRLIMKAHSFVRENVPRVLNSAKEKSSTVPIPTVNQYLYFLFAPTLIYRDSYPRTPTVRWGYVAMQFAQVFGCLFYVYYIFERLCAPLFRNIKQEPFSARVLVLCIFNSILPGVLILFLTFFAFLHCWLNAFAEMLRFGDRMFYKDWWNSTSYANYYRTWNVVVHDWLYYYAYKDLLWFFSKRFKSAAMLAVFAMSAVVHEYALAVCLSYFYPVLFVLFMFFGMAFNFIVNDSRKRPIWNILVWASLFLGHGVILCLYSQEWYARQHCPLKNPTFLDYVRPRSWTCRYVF

The term IC50 denotes the concentration that inhibits the measured activity by half. The melting point is the temperature, or range, at which the solid turns liquid. In turn, `Cc1cc(SC(C)C)c(NC(=O)CCCCCCSc2nc3cccc(C(F)(F)F)c3o2)c(SC(C)C)n1` [Compound No. 1292, 7-(7-trifluoromethylbenzoxazol-2-ylthio)-N-[2,4-bis(isopropylthio)-6-methyl-3-pyridyl]heptanamide] returned a melting point of 76 to 78 °C. Also, in data set [1], the half-maximal inhibitory concentration (IC50) is 2.7 nM and the “IC50 (HepG2)/IC50 (J774)” value was 11.1. Also, the IC50 in data set [2] came to 30 nM.
For `Cc1cc(SC(C)C)c(NC(=O)CCCCCCCCSc2nc3cccc(C(F)(F)F)c3o2)c(SC(C)C)n1` [Compound No. 1294, 9-(7-trifluoromethylbenzoxazol-2-ylthio)-N-[2,4-bis(isopropylthio)-6-methyl-3-pyridyl]nonanamide] the same measures were 97 to 98 °C, 4.2 nM, 0.6 and 2.4 nM.
`CC(C)c1cccc(C(C)C)c1NC(=O)C(C)(C)CCCOc1ccc2c(c1)C=C(c1nccn1C)C(CCc1ccc(F)cc1)O2` (centres unmarked) [Control 1, 5-[2-(2-(4-fluorophenyl)ethyl)-3-(1-methyl-1H-imidazol-2-yl)-2H-1-benzopyran-6-yl]oxy-2,2-dimethyl-N-(2,6-diisopropylphenyl)pentanamide, reference compound]: the IC50 came to 870 nM in data set [3] and 560 nM in data set [1].
As for `CCCCCCCCCN(CC(C)(C)C)C(=O)N[C@H]1CCCC[C@@H]1OC(=O)CCNC(=O)C1OC(C)(C)OCC1(C)C` (stereo partly drawn) [Control 3, N-(2,2,5,5-tetramethyl-1,3-dioxan-4-ylcarbonyl)-β-alanine 2 (S)-[N′-(2,2-dimethylpropyl)-N′-nonylureido]-1(S)-cyclohexyl ester], the IC50 is 34 nM in data set [4], 56 nM in data set [3] and 320 nM in data set [1].
On to `CCCCCCCN(CCCCCSc1nc(-c2ccccc2)c(-c2ccccc2)[nH]1)c1nc2ccccc2o1` [Control 4, [5-(4,5-diphenyl-1H-imidazol-2-ylthio)pentyl]-N-heptyl-2-benzoxazolamie, reference compound], for which the half-inhibitory concentration (IC50) turned out to be 37 nM in data set [3] and 120 nM in data set [1].
For `CC(C)c1cccc(C(C)C)c1NC(=O)CCCCCSc1nc2ccccc2o1` [Control 5, 6-(benzoxazol-2-ylthio)-N-(2,6-diisopropylphenyl)hexanamide, reference compound], the IC50 in data set [3] is 65 nM; in data set [1], 1900 nM.
